Assay results published in patent publication US20260258084A1, “New Peptides as Selective IL-23 Receptor Antagonists” (Sanofi, priority 2022, published 2026).
Converted amounts (≈) assume the structure as drawn. Read-outs that look alike come from different tables or passages of the source. Starred links: 1 amine or outer side, 2 acyl side, 3 side chain; linkers in the order of their positions; H or OH if unused. Positions of bridges follow the written chain, without caps; N, C: chain ends. Non-standard residues stand in square brackets, D forms with d. Residues, ends and D or L forms follow the SMILES beside them. *: point of attachment. X3 = CN(CCCCC(=O)N[C@@H](CS[*:2])C(=O)[*:1])[*:3]; Trp(7-Me) = Cc1cccc2c(C[C@H](N)C(=O)O)c[nH]c12; 2Nal = N[C@@H](Cc1ccc2ccccc2c1)C(=O)O; AEF = NCCOc1ccc(C[C@H](N)C(=O)O)cc1; 3Pal = N[C@@H](Cc1cccnc1)C(=O)O; αMeL = CC(C)C[C@](C)(N)C(=O)O; Suc = O=C(CCC(=O)[*:2])[*:1]; Thp = NC1(C(=O)O)CCOCC1; Me2NCH2CH2 = CN(C)CC*; Ava = NCCCCC(=O)O; βAla = NCCC(=O)O; Sar = CNCC(=O)O

Assays:
[1] = system: IL-23 induced STAT3 signaling in HEK-Blue™ IL-23 cells; test: IL-23 induced STAT3 signaling in HEK-Blue IL-23 cells (SEAP reporter); assay type: cell-based; conditions: human IL23 0.25 ng/ml, read-out: pSTAT3
Outline: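 HEK-Blue IL-23 cells (10,000/well) pre-incubated 60 min at 37 °C with serially diluted peptides, then stimulated overnight with human IL-23 (0.25 ng/ml final). STAT3-driven SEAP in supernatant detected with QUANTI-Blue after 45 min at RT (OD 620-655 nm); dose-response curves fitted.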

[2] = molecular target: T1, human interleukin-23 receptor (recombinant human IL-23R-Fc chimera) (Homo sapiens, UniProt Q5VWK5); test: Human ELISA IL23/IL23R (assay for specific human IL23R antagonists); assay type: binding; conditions: Table 10; read-out: Human ELISA IL23/IL23R IC50
T1 construct: Fc (IgG Fc fusion)
Outline: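 Plates coated overnight at 4 °C with human IL23 ([…]), blocked, then serially diluted peptides added with recombinant human IL-23R-Fc (0.1 μg/ml final) for 60 min at room temperature. Bound receptor detected with anti-human IgG1-HRP and fluorogenic peroxidase substrate.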

[3] = Solubility testing of peptides at different pH; assay type: physicochemical; conditions: target concentration 1 mg/ml, 2 hours agitation
Outline: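 Solid obtained by drying down DMSO stock was taken up at 1 mg/mL in 50 mM HCl pH 1.2 or 50 mM phosphate pH 6.5, 7.4 or 9.0, agitated gently for 2 h, then filtered (0.45 μm). Solubility by UPLC-UV peak area against a DMSO reference standard curve, corrected for extinction coefficients.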

Pepsin = system: T2, Pepsin; test: Protease stability in simulated gastric fluid (Pepsin-SGF, FaSSGF); assay type: in vitro ADME; conditions: simulated gastric fluid with pepsin (Pepsin-SGF), 60 min, 1 μM peptide, 37° C., read-out: FaSSGF 60 (min), remaining percent of peptide
T2 construct: purchased Merck Millipore
Outline: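 Peptides at 1 μM final in pepsin-containing SGF at 37° C, sampled at 0, 60, 120 and 240 min, quenched with ethanol (0.1% HCOOH). Analysed by LCMS/MS; percent remaining from peak area relative to time 0 (set to 100%).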

Pancreatin = test: Protease stability in simulated intestinal fluid (Pancreatin-SIF, FaSSIF); assay type: in vitro ADME; conditions: 1 μM peptide, 37° C.; for remaining at 1 h, 1 µM: 60 min, read-out: FaSSIF 60 (min), remaining percent of peptide; for remaining at 2 h, 1 µM: 120 min, read-out: FaSSIF 120 (min), remaining percent of peptide; for remaining at 4 h, 1 µM: 240 min, read-out: FaSSIF 240 (min), remaining percent of peptide
Outline: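 Peptide (1 μM final) was incubated at 37° C in simulated intestinal fluid containing pancreatin (1 mg per 10 mL SIF concentrate). Samples were quenched with ethanol/0.1% HCOOH at 0, 60, 120 and 240 min and analysed by LC-MS/MS. Percent remaining is the peak area relative to time 0 (100%).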

[4] = 50 mM HCl buffer, 50 mM HCl pH 1.2, read-out: Solubility Buffer pH 1.2
[5] = 50 mM phosphate buffer pH 6.5, read-out: Solubility Buffer pH 6.5
[6] = 50 mM phosphate buffer pH 7.4, read-out: Solubility Buffer pH 7.4
[7] = 50 mM phosphate buffer pH 9.0, read-out: Solubility Buffer pH 9.0

SMILES | IC50 [1] [nM] | IC50 [2] [nM] | solubility at 2 h [3, 4] [µg/mL] | solubility at 2 h [3, 5] [µg/mL] | solubility at 2 h [3, 6] [µg/mL] | solubility at 2 h [3, 7] [µg/mL] | remaining at 1 h, 1 µM (Pepsin) [%] | remaining at 1 h, 1 µM (Pancreatin) [%] | remaining at 2 h, 1 µM (Pancreatin) [%] | remaining at 4 h, 1 µM (Pancreatin) [%]
CC(=O)NCCCC[C@@H]1NC(=O)[C@H](Cc2c[nH]c3c(C)cccc23)NC(=O)[C@H]([C@@H](C)O)NC(=O)[C@H](CC(N)=O)NC(=O)[C@@H]2CSSC[C@H](NC1=O)C(=O)N[C@@H](Cc1ccc(OCCN(C)C)cc1)C(=O)N[C@@H](Cc1ccc3ccccc3c1)C(=O)N[C@@](C)(CC(C)C)C(=O)N[C@H](C(=O)N[C@@H](CC(N)=O)C(=O)N[C@@H](Cc1c[nH]cn1)C(=O)NCCC(N)=O)CCC(=O)NCCCCC(=O)N2 [compound 50] ([Ava]CNT[Trp(7-Me)]K(Ac)CY(Me2NCH2CH2)[2Nal][αMeL]ENH[βAla]-NH2; disulfide 2-7; lactam N-11) | 0.98 | 0.29 | ≥ 1000 | ≥ 980 | 670 (≈ 353 µM) | 440 (≈ 232 µM) | 99 | 95 | 85 | 85
Cc1cccc2c(C[C@@H]3NC(=O)[C@H]([C@@H](C)O)NC(=O)[C@H](CC(N)=O)NC(=O)[C@@H]4CSSC[C@H](NC(=O)[C@H](CC(C)C)NC3=O)C(=O)N[C@@H](Cc3ccc(OCCN(C)C)cc3)C(=O)N[C@@H](Cc3ccc5ccccc5c3)C(=O)NC3(CCOCC3)C(=O)N[C@H](C(=O)N[C@@H](CC(N)=O)C(=O)N[C@@H](Cc3cccnc3)C(=O)N(C)CC(N)=O)CCC(=O)NCCCCC(=O)N4)c[nH]c12 [compound 24] ([Ava]CNT[Trp(7-Me)]LCY(Me2NCH2CH2)[2Nal][Thp]EN[3Pal][Sar]-NH2; disulfide 2-7; lactam N-11) | 0.59 | 0.4 | ≥ 1020 | ≥ 1100 | ≥ 1000 | 300 (≈ 162 µM) | 84 | 80 | 79 | 76
CC(=O)NCCCC[C@@H]1NC(=O)[C@H](Cc2c[nH]c3c(C)cccc23)NC(=O)[C@H]([C@@H](C)O)NC(=O)[C@H](CC(N)=O)NC(=O)[C@@H]2CSSC[C@H](NC1=O)C(=O)N[C@@H](Cc1ccc(OCCN(C)C)cc1)C(=O)N[C@@H](Cc1ccc3ccccc3c1)C(=O)N[C@@](C)(CC(C)C)C(=O)N[C@H](C(=O)N[C@@H](CC(N)=O)C(=O)N[C@@H](Cc1c[nH]cn1)C(N)=O)CCCCNC(=O)CCC(=O)N2 [compound 23] (CNT[Trp(7-Me)]K(Ac)CY(Me2NCH2CH2)[2Nal][αMeL]KNH-NH2; disulfide 1-6; linker N-10 via Suc) | 3.32 | 0.26 | ≥ 970 | 980 (≈ 536 µM) | 210 (≈ 115 µM) | 60 (≈ 32.8 µM) | 69 | 79 | 68 | 67
CC(=O)N[C@H]1CCCCNC(=O)[C@@H]2CSSC[C@H](NC(=O)[C@H](CCC(N)=O)NC(=O)[C@H](Cc3c[nH]c4ccccc34)NC1=O)C(=O)N[C@@H](Cc1ccc(OCCN)cc1)C(=O)N[C@@H](Cc1ccc3ccccc3c1)C(=O)NC1(CCOCC1)C(=O)N[C@H](C(=O)N[C@@H](CC(N)=O)C(=O)N[C@@H](CC(N)=O)C(N)=O)CCC(=O)N(C)CCCCC(=O)N2 [compound 13] (Ac-KWQC[AEF][2Nal][Thp]ENN-NH2; linker 1-4-8 via X3) | 32 | 0.61 | ≥ 1050 | ≥ 1070 | 770 (≈ 456 µM) | ≥ 990 | 73 | 83 | 70 | 54
